Source: US12404241B2 (Celgene Corporation, priority 2018, dated 2025)
Like-named read-outs stand apart in the source and are kept apart here.

Target: T1, AR (Homo sapiens, UniProt P10275)
T1 construct: endogenous in cells; host or cells: VCaP cells
T1 sequence (P10275 1-920): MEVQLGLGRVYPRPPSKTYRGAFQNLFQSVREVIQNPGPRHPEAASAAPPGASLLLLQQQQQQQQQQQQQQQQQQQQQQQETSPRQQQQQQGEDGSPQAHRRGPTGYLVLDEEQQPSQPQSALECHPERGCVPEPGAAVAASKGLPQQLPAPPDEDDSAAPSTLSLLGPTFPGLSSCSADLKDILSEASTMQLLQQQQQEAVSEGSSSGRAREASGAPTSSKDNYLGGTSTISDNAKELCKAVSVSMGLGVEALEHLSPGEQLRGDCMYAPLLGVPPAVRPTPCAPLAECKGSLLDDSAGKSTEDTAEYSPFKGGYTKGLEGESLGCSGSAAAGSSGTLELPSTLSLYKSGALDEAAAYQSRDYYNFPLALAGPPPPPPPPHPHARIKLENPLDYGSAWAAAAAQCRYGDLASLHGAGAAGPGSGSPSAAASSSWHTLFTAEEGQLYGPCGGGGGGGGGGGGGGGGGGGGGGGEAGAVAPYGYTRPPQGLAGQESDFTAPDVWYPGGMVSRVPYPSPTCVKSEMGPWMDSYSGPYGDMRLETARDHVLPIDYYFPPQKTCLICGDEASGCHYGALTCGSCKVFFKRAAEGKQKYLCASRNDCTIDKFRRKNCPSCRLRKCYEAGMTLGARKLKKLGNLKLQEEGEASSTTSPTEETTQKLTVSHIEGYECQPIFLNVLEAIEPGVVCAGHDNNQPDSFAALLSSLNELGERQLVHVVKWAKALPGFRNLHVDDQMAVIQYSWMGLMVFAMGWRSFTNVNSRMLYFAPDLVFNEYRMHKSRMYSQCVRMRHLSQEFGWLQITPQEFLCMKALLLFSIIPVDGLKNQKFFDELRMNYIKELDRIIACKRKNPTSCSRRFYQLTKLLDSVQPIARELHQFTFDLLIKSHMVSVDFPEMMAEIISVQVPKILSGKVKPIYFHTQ
Experiment: VCAP AR Degradation Assay
Assay type: cell-based
Details: for Y (AR degradation efficiency, % of DMSO control): class symbols *; for DC50: class symbols A-C
Method in brief: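 24 h, 37 °C, VCaP (DMEM/8% FBS), 10-pt 1:3 dilutions from 5 μM final top, 0.1% DMSO ctrl. Lysis on ice/4 °C 1 h; total AR by sandwich ELISA, normalized to DMSO. 4PL fit → DC50, EC50, Y (min AR level).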

CC(C)c1cc(N2C(=S)N(c3ccc(C#N)c(Cl)c3)C(=O)C2(C)C)ccc1OCCN1C[C@@H](C)N(CC(=O)Nc2cc(NC3CCC(=O)NC3=O)ccc2F)[C@@H](C)C1 (stereo partly drawn) [Example 222, 2-((2S,6R)-4-(2-(4-(3-(3-chloro-4-cyanophenyl)-5,5-dimethyl-4-oxo-2-thioxoimidazolidin-1-yl)-2-isopropylphenoxy)ethyl)-2,6-dimethylpiperazin-1-yl)-N-(5-(2,6-dioxopiperidin-3-ylamino)-2-fluorophenyl)acetamide]
Y (AR degradation efficiency, % of DMSO control): * (0<Y<=25%) | DC50 (read-out: DC50): 100 to 500 nM

CCc1cc(N2C(=S)N(c3ccc(C#N)c(C(F)(F)F)c3)C(=O)C2(C)C)ccc1OCCN1CCN(CC(=O)Nc2cccc(NC3CCC(=O)NC3=O)c2)C(C)(C)C1 (stereo not drawn) [Example 95, 2-(4-(2-(4-(3-(4-cyano-3-(trifluoromethyl)phenyl)-5,5-dimethyl-4-oxo-2-thioxoimidazolidin-1-yl)-2-ethylphenoxy)ethyl)-2,2-dimethylpiperazin-1-yl)-N-(3-(2,6-dioxopiperidin-3-ylamino)phenyl)acetamide]
Y (AR degradation efficiency, % of DMSO control): * (0<Y<=25%) | DC50 (read-out: DC50): < 100 nM

CC(C)c1cc(N2C(=S)N(c3cnc(C#N)c(C(F)(F)F)c3)C(=O)C2(C)C)ccc1OCCN1CCN(CC(=O)Nc2cccc(NC3CCC(=O)NC3=O)c2)[C@H](C)C1 (stereo partly drawn) [Example 163, 2-((R)-4-(2-(4-(3-(6-cyano-5-(trifluoromethyl)pyridin-3-yl)-5,5-dimethyl-4-oxo-2-thioxoimidazolidin-1-yl)-2-isopropylphenoxy)ethyl)-2-methylpiperazin-1-yl)-N-(3-(2,6-dioxopiperidin-3-ylamino)phenyl)acetamide]
Y (AR degradation efficiency, % of DMSO control): * (0<Y<=25%) | DC50 (read-out: DC50): 100 to 500 nM

CCc1cc(N2C(=S)N(c3cnc(C#N)c(C(F)(F)F)c3)C(=O)C23CCC3)ccc1OCCN1CCN(CC(=O)Nc2cc(Cl)cc(NC3CCC(=O)NC3=O)c2)[C@H](C)C1 (stereo partly drawn) [Example 106, N-(3-chloro-5-(2,6-dioxopiperidin-3-ylamino)phenyl)-2-((R)-4-(2-(4-(7-(6-cyano-5-(trifluoromethyl)pyridin-3-yl)-8-oxo-6-thioxo-5,7-diazaspiro[3.4]octan-5-yl)-2-ethylphenoxy)ethyl)-2-methylpiperazin-1-yl)acetamide]
Y (AR degradation efficiency, % of DMSO control): * (0<Y<=25%) | DC50 (read-out: DC50): < 100 nM

CC(C)c1cc(N2C(=S)N(c3ccc(C#N)c(C(F)(F)F)c3)C(=O)C2(C)C)cnc1OCCN1C[C@@H](C)N(CC(=O)Nc2cc(Cl)cc(NC3CCC(=O)NC3=O)c2)C[C@H]1C (stereo partly drawn) [Example 214, N-(3-chloro-5-(2,6-dioxopiperidin-3-ylamino)phenyl)-2-((2R,5R)-4-(2-(5-(3-(4-cyano-3-(trifluoromethyl)phenyl)-5,5-dimethyl-4-oxo-2-thioxoimidazolidin-1-yl)-3-isopropylpyridin-2-yloxy)ethyl)-2,5-dimethylpiperazin-1-yl)acetamide]
Y (AR degradation efficiency, % of DMSO control): ** (25%<Y<=35%) | DC50 (read-out: DC50): 100 to 500 nM

CCc1cc(N2C(=S)N(c3ccc(C#N)c(C(F)(F)F)c3)C(=O)C23CCC3)ccc1OCCN1CCN(CC(=O)Nc2cc(Cl)cc(NC3CCC(=O)NC3=O)c2)[C@H](C)C1 (stereo partly drawn) [Example 103, N-(3-chloro-5-(2,6-dioxopiperidin-3-ylamino)phenyl)-2-((R)-4-(2-(4-(7-(4-cyano-3-(trifluoromethyl)phenyl)-8-oxo-6-thioxo-5,7-diazaspiro[3.4]octan-5-yl)-2-ethylphenoxy)ethyl)-2-methylpiperazin-1-yl)acetamide]
Y (AR degradation efficiency, % of DMSO control): * (0<Y<=25%) | DC50 (read-out: DC50): < 100 nM

C[C@@H]1CN(CC(=O)Nc2cccc(NC3CCC(=O)NC3=O)c2)[C@H](C)CN1CCOc1ccc(N2C(=S)N(c3cnc(C#N)c(C(F)(F)F)c3)C(=O)C2(C)C)cc1C(C)(F)F (stereo partly drawn) [Example 244, 2-((2R,5R)-4-(2-(4-(3-(6-cyano-5-(trifluoromethyl)pyridin-3-yl)-5,5-dimethyl-4-oxo-2-thioxoimidazolidin-1-yl)-2-(1,1-difluoroethyl)phenoxy)ethyl)-2,5-dimethylpiperazin-1-yl)-N-(3-(2,6-dioxopiperidin-3-ylamino)phenyl)acetamide]
Y (AR degradation efficiency, % of DMSO control): * (0<Y<=25%) | DC50 (read-out: DC50): < 100 nM

CCc1cc(N2C(=S)N(c3cnc(C#N)c(C(F)(F)F)c3)C(=O)C2(C)C)ccc1OCCN1CC2CCC(C1)N2CC(=O)Nc1cccc(NC2CCC(=O)NC2=O)c1 (stereo not drawn) [Example 178, 2-(3-(2-(4-(3-(6-cyano-5-(trifluoromethyl)pyridin-3-yl)-5,5-dimethyl-4-oxo-2-thioxoimidazolidin-1-yl)-2-ethylphenoxy)ethyl)-3,8-diazabicyclo[3.2.1]octan-8-yl)-N-(3-(2,6-dioxopiperidin-3-ylamino)phenyl)acetamide]
Y (AR degradation efficiency, % of DMSO control): ** (25%<Y<=35%) | DC50: < 100 nM

CCc1cc(N2C(=S)N(c3ccc(C#N)c(C(F)(F)F)c3)C(=O)C2(C)C)ccc1OCCN1CCN([C@H](C)C(=O)Nc2cccc(NC3CCC(=O)NC3=O)c2)CC1 (stereo partly drawn) [Example 58, (2R)-2-(4-(2-(4-(3-(4-cyano-3-(trifluoromethyl)phenyl)-5,5-dimethyl-4-oxo-2-thioxoimidazolidin-1-yl)-2-ethylphenoxy)ethyl)piperazin-1-yl)-N-(3-(2,6-dioxopiperidin-3-ylamino)phenyl)propanamide]
Y (AR degradation efficiency, % of DMSO control): * (0<Y<=25%) | DC50 (read-out: DC50): < 100 nM

C[C@@H]1CN(CCOc2ccc(N3C(=S)N(c4ccc(C#N)c(C(F)(F)F)c4)C(=O)C3(C)C)cc2CC(F)F)CCN1CC(=O)Nc1cc(F)cc(NC2CCC(=O)NC2=O)c1 (stereo partly drawn) [Example 158, 2-((R)-4-(2-(4-(3-(4-cyano-3-(trifluoromethyl)phenyl)-5,5-dimethyl-4-oxo-2-thioxoimidazolidin-1-yl)-2-(2,2-difluoroethyl)phenoxy)ethyl)-2-methylpiperazin-1-yl)-N-(3-(2,6-dioxopiperidin-3-ylamino)-5-fluorophenyl)acetamide]
Y (AR degradation efficiency, % of DMSO control): * (0<Y<=25%) | DC50 (read-out: DC50): < 100 nM

CCc1cc(N2C(=S)N(c3cnc(C#N)c(C(F)(F)F)c3)C(=O)C2(C)C)ccc1OCCN1CCN(CC(=O)Nc2cc(NC3CCC(=O)NC3=O)ccc2F)CC1 (stereo not drawn) [Example 64, 2-(4-(2-(4-(3-(6-cyano-5-(trifluoromethyl)pyridin-3-yl)-5,5-dimethyl-4-oxo-2-thioxoimidazolidin-1-yl)-2-ethylphenoxy)ethyl)piperazin-1-yl)-N-(5-(2,6-dioxopiperidin-3-ylamino)-2-fluorophenyl)acetamide]
Y (AR degradation efficiency, % of DMSO control): * (0<Y<=25%) | DC50 (read-out: DC50): < 100 nM

CCc1cc(N2C(=S)N(c3cnc(C#N)c(C(F)(F)F)c3)C(=O)C2(C)C)ccc1OCCN1CCN(CC(=O)Nc2cc(Cl)cc(NC3CCC(=O)NC3=O)c2)C2(CC2)C1 (stereo not drawn) [Example 102, N-(3-chloro-5-(2,6-dioxopiperidin-3-ylamino)phenyl)-2-(7-(2-(4-(3-(6-cyano-5-(trifluoromethyl)pyridin-3-yl)-5,5-dimethyl-4-oxo-2-thioxoimidazolidin-1-yl)-2-ethylphenoxy)ethyl)-4,7-diazaspiro[2.5]octan-4-yl)acetamide]
Y (AR degradation efficiency, % of DMSO control): * (0<Y<=25%) | DC50 (read-out: DC50): < 100 nM
